# Measurements: ChEMBL document CHEMBL1121688 (J Med Chem, 1981)
# Assays:
# Dopamine receptor = experiment: Relative affinity for dopamine receptor by displacement of [3H]spiroperidol (2.2 nM) from (in vitro) dopamine binding sites in rat caudate nuclei
# [1] = Concentration required (in vitro) to displace 50% specific binding of [3H]clozapine to non-muscarinic sites in rat brain in presence of 1 uM atropine; format: tissue-based
# [2] = target: Muscarinic acetylcholine receptor; experiment: Concentration required (in vitro) to displace 50% specific binding of [3H]clozapine to Muscarinic acetylcholine receptor in rat brain; format: tissue-based
# [3] = Concentration required (in vitro) to displace 50% specific binding of [3H]clozapine to sites in rat brain
Compound,IC50 (Dopamine receptor),IC50 [1],IC50 [2],IC50 [3]
CN1CCN(C2=Cc3ccccc3Cc3ccccc32)CC1,0.808 µM,0.0037 µM,0.61 µM,–
CC1CCN(C2=Cc3ccccc3Cc3ccc(Cl)cc32)CC1,–,> 10 µM,> 10 µM,–
CC1CCN(C2=Cc3cc(Cl)ccc3Cc3ccccc32)CC1,> 10 µM,> 10 µM,> 10 µM,–
CN1CCN(C2=Cc3cc(Cl)ccc3Cc3ccccc32)CC1,0.342 µM,0.013 µM,0.67 µM,–
CN1CCN(C2=Nc3cc(Cl)ccc3Oc3ccccc32)CC1 [ISOLOXAPINE],2.48 µM,0.038 µM,0.049 µM,–
CN1CCN(C2=Nc3cc(Cl)ccc3N(C)c3ccccc32)CC1,32.4 µM,0.088 µM,0.012 µM,–
CN1CCC(C2=Cc3cc(Cl)ccc3Cc3ccccc32)CC1,0.678 µM,0.007 µM,0.622 µM,–
CN1CCN(C2=Cc3ccccc3Cc3ccc(Cl)cc32)CC1,0.039 µM,0.01 µM,0.29 µM,–
CN1CCN(C2=Nc3cc(Cl)ccc3Nc3ccccc32)CC1 [CLOZAPINE],–,0.013 µM,–,–
CN1CCN(C2=Nc3ccccc3Nc3ccc(Cl)cc32)CC1 [ISOCLOZAPINE],0.758 µM,–,–,0.017 µM
